{"source": "paper PMC9571063", "about": "(Molecules, 2022)", "assay_in_all_cases": "KINOMEscan", "assay_type_in_all_cases": "binding", "conditions_in_all_cases": "read-out: Percent Control", "key": {"[1]": {"molecular_target": "T1, ABL1(E255K)-phosphorylated (Homo sapiens, UniProt P00519, E255K)", "T1 construct": "purchased Eurofins DiscoverX KINOMEscan (scanMAX 468)"}, "[2]": {"molecular_target": "T2, ABL1(T315I)-phosphorylated (Homo sapiens, UniProt P00519, T315I)", "T2 construct": "purchased Eurofins DiscoverX KINOMEscan (scanMAX 468)"}, "ANKK1": {"molecular_target": "T3, ANKK1 (Homo sapiens, UniProt Q8NFD2)", "T3 construct": "purchased Eurofins DiscoverX KINOMEscan (scanMAX 468)"}, "AURKB": {"molecular_target": "T4, AURKB (Homo sapiens, UniProt Q96GD4)", "T4 construct": "purchased Eurofins DiscoverX KINOMEscan (scanMAX 468)"}, "BMPR2": {"molecular_target": "T5, BMPR2 (Homo sapiens, UniProt Q13873)", "T5 construct": "purchased Eurofins DiscoverX KINOMEscan (scanMAX 468)", "T5 sequence (Q13873 27-1038)": "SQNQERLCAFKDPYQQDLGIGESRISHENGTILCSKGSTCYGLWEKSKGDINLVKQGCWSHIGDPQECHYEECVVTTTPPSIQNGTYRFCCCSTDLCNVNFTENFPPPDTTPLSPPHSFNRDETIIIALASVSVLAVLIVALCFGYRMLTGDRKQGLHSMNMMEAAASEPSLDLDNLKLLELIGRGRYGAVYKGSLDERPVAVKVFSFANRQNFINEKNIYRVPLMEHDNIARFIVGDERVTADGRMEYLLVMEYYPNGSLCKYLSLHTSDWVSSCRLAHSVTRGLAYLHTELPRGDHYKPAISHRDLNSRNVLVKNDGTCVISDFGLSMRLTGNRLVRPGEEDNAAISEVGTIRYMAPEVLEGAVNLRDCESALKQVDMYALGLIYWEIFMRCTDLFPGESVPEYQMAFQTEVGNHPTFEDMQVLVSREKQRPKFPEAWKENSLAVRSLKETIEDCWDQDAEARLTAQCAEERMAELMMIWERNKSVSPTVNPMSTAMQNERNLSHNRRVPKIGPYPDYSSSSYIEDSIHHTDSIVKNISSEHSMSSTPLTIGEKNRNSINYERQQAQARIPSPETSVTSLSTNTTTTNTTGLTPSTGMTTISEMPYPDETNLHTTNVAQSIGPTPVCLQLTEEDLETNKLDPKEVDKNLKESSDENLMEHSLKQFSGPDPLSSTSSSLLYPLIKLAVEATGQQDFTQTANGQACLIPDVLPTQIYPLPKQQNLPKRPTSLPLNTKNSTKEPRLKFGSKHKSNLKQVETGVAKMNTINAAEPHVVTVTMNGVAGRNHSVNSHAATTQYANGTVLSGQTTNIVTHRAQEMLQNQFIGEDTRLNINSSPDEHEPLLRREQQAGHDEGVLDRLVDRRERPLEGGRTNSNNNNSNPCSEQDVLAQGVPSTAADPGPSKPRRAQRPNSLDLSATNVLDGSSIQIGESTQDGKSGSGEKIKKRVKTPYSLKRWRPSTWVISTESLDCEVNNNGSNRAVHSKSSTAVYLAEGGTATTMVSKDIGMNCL"}, "BRAF": {"molecular_target": "T6, BRAF (Homo sapiens, UniProt P15056)", "T6 construct": "purchased Eurofins DiscoverX KINOMEscan (scanMAX 468)"}, "CAMK4": {"molecular_target": "T7, CAMK4 (Homo sapiens, UniProt Q16566)", "T7 construct": "purchased Eurofins DiscoverX KINOMEscan (scanMAX 468)"}, "CASK": {"molecular_target": "T8, CASK (Homo sapiens, UniProt O14936)", "T8 construct": "purchased Eurofins DiscoverX KINOMEscan (scanMAX 468)"}, "CDK4": {"molecular_target": "T9, CDK4 (Homo sapiens, UniProt P11802)", "T9 construct": "purchased Eurofins DiscoverX KINOMEscan (scanMAX 468)"}, "CDK4-cyclinD3": {"molecular_target": "T10, CDK4-cyclinD3 (Homo sapiens, UniProt P11802)", "T10 construct": "purchased Eurofins DiscoverX KINOMEscan (scanMAX 468)"}, "DAPK3": {"molecular_target": "T11, DAPK3 (Homo sapiens, UniProt O43293)", "T11 construct": "purchased Eurofins DiscoverX KINOMEscan (scanMAX 468)"}, "EGFR": {"molecular_target": "T12, EGFR (Homo sapiens, UniProt P00533)", "T12 construct": "purchased Eurofins DiscoverX KINOMEscan (scanMAX 468)"}, "EPHA7": {"molecular_target": "T13, EPHA7 (Homo sapiens, UniProt Q15375)", "T13 construct": "purchased Eurofins DiscoverX KINOMEscan (scanMAX 468)"}, "ERK4": {"molecular_target": "T14, ERK4 (Homo sapiens, UniProt P31152)", "T14 construct": "purchased Eurofins DiscoverX KINOMEscan (scanMAX 468)"}, "ERK5": {"molecular_target": "T15, ERK5 (Homo sapiens, UniProt Q13164)", "T15 construct": "purchased Eurofins DiscoverX KINOMEscan (scanMAX 468)"}, "FGR": {"molecular_target": "T16, FGR (Homo sapiens, UniProt P09769)", "T16 construct": "purchased Eurofins DiscoverX KINOMEscan (scanMAX 468)"}, "FYN": {"molecular_target": "T17, FYN (Homo sapiens, UniProt P06241)", "T17 construct": "purchased Eurofins DiscoverX KINOMEscan (scanMAX 468)"}, "HASPIN": {"molecular_target": "T18, HASPIN (Homo sapiens, UniProt Q8TF76)", "T18 construct": "purchased Eurofins DiscoverX KINOMEscan (scanMAX 468)"}, "HIPK3": {"molecular_target": "T19, HIPK3 (Homo sapiens, UniProt Q9H422)", "T19 construct": "purchased Eurofins DiscoverX KINOMEscan (scanMAX 468)"}, "KIT(V559D)": {"molecular_target": "T20, KIT(V559D) (Homo sapiens, UniProt P10721, V559D)", "T20 construct": "purchased Eurofins DiscoverX KINOMEscan (scanMAX 468)", "T20 sequence (P10721 26-976 V559D)": "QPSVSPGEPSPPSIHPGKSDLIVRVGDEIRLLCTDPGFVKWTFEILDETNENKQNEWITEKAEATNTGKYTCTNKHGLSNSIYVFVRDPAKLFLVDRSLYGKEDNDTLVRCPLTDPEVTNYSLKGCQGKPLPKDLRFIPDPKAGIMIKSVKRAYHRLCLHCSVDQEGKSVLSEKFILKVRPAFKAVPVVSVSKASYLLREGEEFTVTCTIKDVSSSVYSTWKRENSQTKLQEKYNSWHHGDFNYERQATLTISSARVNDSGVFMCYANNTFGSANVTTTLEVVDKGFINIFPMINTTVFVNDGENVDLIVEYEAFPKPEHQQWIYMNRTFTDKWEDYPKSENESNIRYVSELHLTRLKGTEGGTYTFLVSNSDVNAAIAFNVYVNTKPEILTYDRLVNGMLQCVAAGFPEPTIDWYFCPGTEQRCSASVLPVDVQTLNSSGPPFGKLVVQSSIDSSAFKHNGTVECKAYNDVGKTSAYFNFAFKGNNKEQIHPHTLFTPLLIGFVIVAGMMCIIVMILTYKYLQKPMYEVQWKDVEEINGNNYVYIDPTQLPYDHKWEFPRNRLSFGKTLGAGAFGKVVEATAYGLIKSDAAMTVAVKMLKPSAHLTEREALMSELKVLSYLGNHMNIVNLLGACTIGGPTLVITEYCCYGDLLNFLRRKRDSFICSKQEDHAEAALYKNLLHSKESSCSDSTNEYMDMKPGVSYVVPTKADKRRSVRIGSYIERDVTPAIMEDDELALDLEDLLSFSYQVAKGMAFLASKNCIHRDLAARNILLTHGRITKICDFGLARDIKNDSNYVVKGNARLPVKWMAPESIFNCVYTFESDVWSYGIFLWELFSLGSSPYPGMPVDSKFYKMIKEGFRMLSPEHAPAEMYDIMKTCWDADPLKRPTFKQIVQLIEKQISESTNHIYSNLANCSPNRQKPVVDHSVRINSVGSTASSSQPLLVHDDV"}, "KIT-autoinhibited": {"molecular_target": "T21, KIT-autoinhibited (Homo sapiens, UniProt P10721)", "T21 construct": "purchased Eurofins DiscoverX KINOMEscan (scanMAX 468)", "T21 sequence (P10721 26-976)": "as the sequence (P10721 26-976 V559D) above, with D534V counted along it"}, "MAPKAPK5": {"molecular_target": "T22, MAPKAPK5 (Homo sapiens, UniProt Q8IW41)", "T22 construct": "purchased Eurofins DiscoverX KINOMEscan (scanMAX 468)"}, "MINK": {"molecular_target": "T23, MINK (Homo sapiens, UniProt Q8N4C8)", "T23 construct": "purchased Eurofins DiscoverX KINOMEscan (scanMAX 468)"}, "MLK3": {"molecular_target": "T24, MLK3 (Homo sapiens, UniProt Q16584)", "T24 construct": "purchased Eurofins DiscoverX KINOMEscan (scanMAX 468)"}, "MST1": {"molecular_target": "T25, MST1 (Homo sapiens, UniProt Q13043)", "T25 construct": "purchased Eurofins DiscoverX KINOMEscan (scanMAX 468)"}, "MTOR": {"molecular_target": "T26, MTOR (Homo sapiens, UniProt P42345)", "T26 construct": "purchased Eurofins DiscoverX KINOMEscan (scanMAX 468)"}, "MYLK2": {"molecular_target": "T27, MYLK2 (Homo sapiens, UniProt Q9H1R3)", "T27 construct": "purchased Eurofins DiscoverX KINOMEscan (scanMAX 468)"}, "NEK6": {"molecular_target": "T28, NEK6 (Homo sapiens, UniProt Q9HC98)", "T28 construct": "purchased Eurofins DiscoverX KINOMEscan (scanMAX 468)"}, "PCTK1": {"molecular_target": "T29, PCTK1 (Homo sapiens, UniProt Q00536)", "T29 construct": "purchased Eurofins DiscoverX KINOMEscan (scanMAX 468)"}, "PFTAIRE2": {"molecular_target": "T30, PFTAIRE2 (Homo sapiens, UniProt Q96Q40)", "T30 construct": "purchased Eurofins DiscoverX KINOMEscan (scanMAX 468)"}, "PFTK1": {"molecular_target": "T31, PFTK1 (Homo sapiens, UniProt O94921)", "T31 construct": "purchased Eurofins DiscoverX KINOMEscan (scanMAX 468)"}, "PKN1": {"molecular_target": "T32, PKN1 (Homo sapiens, UniProt Q16512)", "T32 construct": "purchased Eurofins DiscoverX KINOMEscan (scanMAX 468)"}, "PLK2": {"molecular_target": "T33, PLK2 (Homo sapiens, UniProt Q9NYY3)", "T33 construct": "purchased Eurofins DiscoverX KINOMEscan (scanMAX 468)"}, "PRKCH": {"molecular_target": "T34, PRKCH (Homo sapiens, UniProt P24723)", "T34 construct": "purchased Eurofins DiscoverX KINOMEscan (scanMAX 468)"}, "PRKR": {"molecular_target": "T35, PRKR (Homo sapiens, UniProt P19525)", "T35 construct": "purchased Eurofins DiscoverX KINOMEscan (scanMAX 468)"}, "RET(V804L)": {"molecular_target": "T36, RET(V804L) (Homo sapiens, UniProt P07949, V804L)", "T36 construct": "purchased Eurofins DiscoverX KINOMEscan (scanMAX 468)", "T36 sequence (P07949 29-1114 V804L)": "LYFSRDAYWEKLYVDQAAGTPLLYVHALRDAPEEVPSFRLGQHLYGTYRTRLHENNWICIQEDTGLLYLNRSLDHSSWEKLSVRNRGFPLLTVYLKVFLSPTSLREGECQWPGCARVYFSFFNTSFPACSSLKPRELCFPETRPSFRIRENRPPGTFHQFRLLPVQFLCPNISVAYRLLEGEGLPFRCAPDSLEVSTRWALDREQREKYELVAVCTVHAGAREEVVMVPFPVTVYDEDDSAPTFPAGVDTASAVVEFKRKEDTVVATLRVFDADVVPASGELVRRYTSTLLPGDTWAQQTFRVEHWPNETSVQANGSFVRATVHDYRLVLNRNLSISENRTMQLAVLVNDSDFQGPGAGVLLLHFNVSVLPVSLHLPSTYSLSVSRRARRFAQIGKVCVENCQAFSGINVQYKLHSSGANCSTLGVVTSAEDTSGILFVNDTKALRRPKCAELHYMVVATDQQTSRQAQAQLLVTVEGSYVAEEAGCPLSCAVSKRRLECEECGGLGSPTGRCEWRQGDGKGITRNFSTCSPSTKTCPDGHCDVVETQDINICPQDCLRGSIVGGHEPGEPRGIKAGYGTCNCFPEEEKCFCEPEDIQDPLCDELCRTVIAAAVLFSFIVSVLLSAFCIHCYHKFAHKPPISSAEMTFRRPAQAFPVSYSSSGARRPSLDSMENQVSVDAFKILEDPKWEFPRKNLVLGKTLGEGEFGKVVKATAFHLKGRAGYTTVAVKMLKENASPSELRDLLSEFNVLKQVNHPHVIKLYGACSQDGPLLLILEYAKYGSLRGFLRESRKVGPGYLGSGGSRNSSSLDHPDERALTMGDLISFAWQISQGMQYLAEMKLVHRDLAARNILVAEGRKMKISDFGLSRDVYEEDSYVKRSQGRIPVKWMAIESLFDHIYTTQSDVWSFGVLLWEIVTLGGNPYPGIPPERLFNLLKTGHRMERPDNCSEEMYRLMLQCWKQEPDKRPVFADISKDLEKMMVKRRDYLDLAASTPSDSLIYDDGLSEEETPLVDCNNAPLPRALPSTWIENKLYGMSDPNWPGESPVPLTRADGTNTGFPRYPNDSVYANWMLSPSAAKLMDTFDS"}, "RIPK1": {"molecular_target": "T37, RIPK1 (Homo sapiens, UniProt Q13546)", "T37 construct": "purchased Eurofins DiscoverX KINOMEscan (scanMAX 468)"}, "SRPK1": {"molecular_target": "T38, SRPK1 (Homo sapiens, UniProt Q96SB4)", "T38 construct": "purchased Eurofins DiscoverX KINOMEscan (scanMAX 468)"}, "SRPK3": {"molecular_target": "T39, SRPK3 (Homo sapiens, UniProt Q9UPE1)", "T39 construct": "purchased Eurofins DiscoverX KINOMEscan (scanMAX 468)"}, "TBK1": {"molecular_target": "T40, TBK1 (Homo sapiens, UniProt Q9UHD2)", "T40 construct": "purchased Eurofins DiscoverX KINOMEscan (scanMAX 468)", "T40 sequence (Q9UHD2 whole entry)": "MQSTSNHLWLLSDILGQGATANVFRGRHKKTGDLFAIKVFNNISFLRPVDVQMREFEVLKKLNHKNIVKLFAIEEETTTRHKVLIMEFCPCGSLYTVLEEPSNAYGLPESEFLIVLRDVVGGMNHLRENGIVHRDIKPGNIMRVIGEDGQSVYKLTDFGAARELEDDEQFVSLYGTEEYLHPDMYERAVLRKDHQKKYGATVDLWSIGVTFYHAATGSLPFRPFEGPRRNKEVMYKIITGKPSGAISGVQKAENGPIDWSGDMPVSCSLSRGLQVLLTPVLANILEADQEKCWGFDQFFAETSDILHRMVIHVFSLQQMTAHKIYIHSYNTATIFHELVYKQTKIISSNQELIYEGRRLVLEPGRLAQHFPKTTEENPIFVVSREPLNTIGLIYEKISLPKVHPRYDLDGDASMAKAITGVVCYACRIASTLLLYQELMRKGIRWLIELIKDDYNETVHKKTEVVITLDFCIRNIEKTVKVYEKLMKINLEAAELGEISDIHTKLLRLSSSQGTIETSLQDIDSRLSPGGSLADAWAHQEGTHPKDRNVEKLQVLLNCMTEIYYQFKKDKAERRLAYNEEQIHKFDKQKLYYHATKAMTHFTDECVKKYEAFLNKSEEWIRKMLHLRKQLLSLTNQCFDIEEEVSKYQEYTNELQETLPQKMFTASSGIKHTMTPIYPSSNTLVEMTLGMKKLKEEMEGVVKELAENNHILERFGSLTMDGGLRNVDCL"}, "TNIK": {"molecular_target": "T41, TNIK (Homo sapiens, UniProt Q9UKE5)", "T41 construct": "purchased Eurofins DiscoverX KINOMEscan (scanMAX 468)"}, "TRKB": {"molecular_target": "T42, TRKB (Homo sapiens, UniProt Q16620)", "T42 construct": "purchased Eurofins DiscoverX KINOMEscan (scanMAX 468)", "T42 sequence (Q16620 32-822)": "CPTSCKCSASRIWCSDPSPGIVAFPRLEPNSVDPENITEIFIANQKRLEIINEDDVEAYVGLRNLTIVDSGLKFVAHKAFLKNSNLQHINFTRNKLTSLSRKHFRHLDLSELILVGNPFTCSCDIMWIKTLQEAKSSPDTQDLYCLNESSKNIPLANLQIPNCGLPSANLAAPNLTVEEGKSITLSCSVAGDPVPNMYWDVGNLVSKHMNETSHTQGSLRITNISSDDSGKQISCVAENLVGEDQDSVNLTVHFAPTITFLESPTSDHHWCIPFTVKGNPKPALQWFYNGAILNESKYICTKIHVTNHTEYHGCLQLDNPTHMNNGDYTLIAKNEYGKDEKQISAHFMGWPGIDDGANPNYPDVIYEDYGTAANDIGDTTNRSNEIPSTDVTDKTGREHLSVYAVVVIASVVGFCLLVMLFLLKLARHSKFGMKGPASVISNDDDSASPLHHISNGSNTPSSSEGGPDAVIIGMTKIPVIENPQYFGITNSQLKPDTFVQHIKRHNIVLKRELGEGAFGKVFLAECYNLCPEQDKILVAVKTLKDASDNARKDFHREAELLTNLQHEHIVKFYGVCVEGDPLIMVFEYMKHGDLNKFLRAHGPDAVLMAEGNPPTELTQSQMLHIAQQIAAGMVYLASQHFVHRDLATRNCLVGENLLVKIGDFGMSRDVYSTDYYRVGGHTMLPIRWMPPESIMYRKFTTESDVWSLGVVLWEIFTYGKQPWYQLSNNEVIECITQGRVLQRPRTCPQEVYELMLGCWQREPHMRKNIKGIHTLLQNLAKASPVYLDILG"}, "YSK1": {"molecular_target": "T43, YSK1 (Homo sapiens, UniProt O00506)", "T43 construct": "purchased Eurofins (KINOMEscan, DiscoverX)", "T43 sequence (O00506 whole entry)": "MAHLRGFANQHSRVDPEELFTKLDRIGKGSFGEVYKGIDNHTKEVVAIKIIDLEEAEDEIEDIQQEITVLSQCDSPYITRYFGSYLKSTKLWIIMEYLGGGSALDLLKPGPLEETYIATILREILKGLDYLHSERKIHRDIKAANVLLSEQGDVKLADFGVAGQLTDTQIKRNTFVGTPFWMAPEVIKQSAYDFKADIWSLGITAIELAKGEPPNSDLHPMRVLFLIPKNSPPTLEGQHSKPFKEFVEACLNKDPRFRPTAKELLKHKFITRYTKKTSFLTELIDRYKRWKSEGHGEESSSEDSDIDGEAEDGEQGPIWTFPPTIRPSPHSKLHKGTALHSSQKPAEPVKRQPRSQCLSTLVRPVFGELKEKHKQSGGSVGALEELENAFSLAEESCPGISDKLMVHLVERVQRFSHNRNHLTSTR"}, "YSK4": {"molecular_target": "T44, YSK4 (Homo sapiens, UniProt Q56UN5)", "T44 construct": "purchased Eurofins (KINOMEscan, DiscoverX)"}}}
{"smiles": "Cc1ccc(-n2cc(COc3cccc4cnc(Nc5cccc(Cl)c5)nc34)nn2)c([N+](=O)[O-])c1", "note": "[DB18]", "values": [{"measurement": "remaining binding at 1 µM", "setting": "[1]", "result": 97, "unit": "%"}, {"measurement": "remaining binding at 1 µM", "setting": "[2]", "result": 100, "unit": "%"}, {"measurement": "remaining binding at 1 µM", "setting": "ANKK1", "result": 100, "unit": "%"}, {"measurement": "remaining binding at 1 µM", "setting": "AURKB", "result": 99, "unit": "%"}, {"measurement": "remaining binding at 1 µM", "setting": "BMPR2", "result": 100, "unit": "%"}, {"measurement": "remaining binding at 1 µM", "setting": "BRAF", "result": 93, "unit": "%"}, {"measurement": "remaining binding at 1 µM", "setting": "CAMK4", "result": 100, "unit": "%"}, {"measurement": "remaining binding at 1 µM", "setting": "CASK", "result": 99, "unit": "%"}, {"measurement": "remaining binding at 1 µM", "setting": "CDK4", "result": 100, "unit": "%"}, {"measurement": "remaining binding at 1 µM", "setting": "CDK4-cyclinD3", "result": 100, "unit": "%"}, {"measurement": "remaining binding at 1 µM", "setting": "DAPK3", "result": 98, "unit": "%"}, {"measurement": "remaining binding at 1 µM", "setting": "EGFR", "result": 97, "unit": "%"}, {"measurement": "remaining binding at 1 µM", "setting": "EPHA7", "result": 100, "unit": "%"}, {"measurement": "remaining binding at 1 µM", "setting": "ERK4", "result": 100, "unit": "%"}, {"measurement": "remaining binding at 1 µM", "setting": "ERK5", "result": 100, "unit": "%"}, {"measurement": "remaining binding at 1 µM", "setting": "FGR", "result": 96, "unit": "%"}, {"measurement": "remaining binding at 1 µM", "setting": "FYN", "result": 93, "unit": "%"}, {"measurement": "remaining binding at 1 µM", "setting": "HASPIN", "result": 72, "unit": "%"}, {"measurement": "remaining binding at 1 µM", "setting": "HIPK3", "result": 46, "unit": "%"}, {"measurement": "remaining binding at 1 µM", "setting": "KIT(V559D)", "result": 100, "unit": "%"}, {"measurement": "remaining binding at 1 µM", "setting": "KIT-autoinhibited", "result": 97, "unit": "%"}, {"measurement": "remaining binding at 1 µM", "setting": "MAPKAPK5", "result": 99, "unit": "%"}, {"measurement": "remaining binding at 1 µM", "setting": "MINK", "result": 95, "unit": "%"}, {"measurement": "remaining binding at 1 µM", "setting": "MLK3", "result": 100, "unit": "%"}, {"measurement": "remaining binding at 1 µM", "setting": "MST1", "result": 100, "unit": "%"}, {"measurement": "remaining binding at 1 µM", "setting": "MTOR", "result": 55, "unit": "%"}, {"measurement": "remaining binding at 1 µM", "setting": "MYLK2", "result": 100, "unit": "%"}, {"measurement": "remaining binding at 1 µM", "setting": "NEK6", "result": 100, "unit": "%"}, {"measurement": "remaining binding at 1 µM", "setting": "PCTK1", "result": 94, "unit": "%"}, {"measurement": "remaining binding at 1 µM", "setting": "PFTAIRE2", "result": 95, "unit": "%"}, {"measurement": "remaining binding at 1 µM", "setting": "PFTK1", "result": 100, "unit": "%"}, {"measurement": "remaining binding at 1 µM", "setting": "PKN1", "result": 100, "unit": "%"}, {"measurement": "remaining binding at 1 µM", "setting": "PLK2", "result": 100, "unit": "%"}, {"measurement": "remaining binding at 1 µM", "setting": "PRKCH", "result": 100, "unit": "%"}, {"measurement": "remaining binding at 1 µM", "setting": "PRKR", "result": 97, "unit": "%"}, {"measurement": "remaining binding at 1 µM", "setting": "RET(V804L)", "result": 100, "unit": "%"}, {"measurement": "remaining binding at 1 µM", "setting": "RIPK1", "result": 100, "unit": "%"}, {"measurement": "remaining binding at 1 µM", "setting": "SRPK1", "result": 100, "unit": "%"}, {"measurement": "remaining binding at 1 µM", "setting": "SRPK3", "result": 100, "unit": "%"}, {"measurement": "remaining binding at 1 µM", "setting": "TBK1", "result": 91, "unit": "%"}, {"measurement": "remaining binding at 1 µM", "setting": "TNIK", "result": 100, "unit": "%"}, {"measurement": "remaining binding at 1 µM", "setting": "TRKB", "result": 86, "unit": "%"}, {"measurement": "remaining binding at 1 µM", "setting": "YSK1", "result": 98, "unit": "%"}, {"measurement": "remaining binding at 1 µM", "setting": "YSK4", "result": 34, "unit": "%"}]}
